As a reminder, the inhibition is the share of the control response that was lost under treatment. In general, IC50 refers to the concentration that gives 50% inhibition.

The target of test [1] is T1, Protein arginine N-methyltransferase 1 (Homo sapiens, UniProt Q99873). The experiment in a line: Inhibition of recombinant human N-terminal GST-tagged PRMT1 (2 to end residues) expressed in baculovirus infected Sf9 insect cells at 9 uM using biotinylated histone H4 peptide as substrate preincubated for 15 mins followed by substrate/[3H]-SAM addition measured after 60 mins by microbeta liquid scintillation counting analysis.
Target sequence in this assay (Q99873 whole entry, looked up): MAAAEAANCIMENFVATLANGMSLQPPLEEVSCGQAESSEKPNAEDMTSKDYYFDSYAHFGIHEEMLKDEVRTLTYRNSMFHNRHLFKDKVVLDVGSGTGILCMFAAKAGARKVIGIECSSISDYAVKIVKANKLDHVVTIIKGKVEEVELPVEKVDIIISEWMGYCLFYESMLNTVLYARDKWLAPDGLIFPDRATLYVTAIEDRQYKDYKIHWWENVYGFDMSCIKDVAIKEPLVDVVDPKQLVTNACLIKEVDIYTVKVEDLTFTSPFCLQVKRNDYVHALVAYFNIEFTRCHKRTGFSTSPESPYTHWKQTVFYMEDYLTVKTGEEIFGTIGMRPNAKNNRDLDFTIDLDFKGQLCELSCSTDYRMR

The target in test [2] is T1, Protein arginine N-methyltransferase 1. The test can be described thus: Inhibition of recombinant human N-terminal GST-tagged PRMT1 (2 to end residues) expressed in baculovirus infected Sf9 insect cells using biotinylated histone H4 peptide as substrate preincubated for 15 mins followed by substrate/[3H]-SAM addition measured after 60 mins by microbeta liquid scintillation counting analysis.
Target sequence in this assay (Q99873 whole entry): as the sequence (Q99873 whole entry, looked up) above

A further test deals with HepG2. The experiment in a line: Cytotoxicity against human HepG2 cells assessed as reduction in cell viability after 72 hrs by CellTiter-blue assay. Type of test: functional, cell-based. The note with it: HepG2, 72 h. In general terms: Alamar Blue is a resazurin reagent that responds to reducing activity.
For another test, the system named is MCF7. The experiment in a line: Cytotoxicity against human MCF7 cells assessed as reduction in cell viability after 72 hrs by CellTiter-blue assay. Format: functional, cell-based. Conditions: MCF7, 72 h.
Another test concerns Daoy. The test can be described thus: Cytotoxicity against human DaOY cells assessed as reduction in cell viability after 72 hrs by CellTiter-blue assay. Type of test: functional, cell-based.
Test [3] concerns the target T1, Protein arginine N-methyltransferase 1. The test can be described thus: Potency index, ratio of AMI-1 IC50 to compound IC50 for recombinant human N-terminal GST-tagged PRMT1 (2 to end residues) expressed in baculovirus infected Sf9 insect cells.
Target sequence in this assay (Q99873 whole entry, looked up): as above

`CNCCN(C)c1nnnn1Cc1cccc(C(F)(F)F)c1`: in test [1], the inhibition was 8%.

Regarding `CN(CCN)Cc1ccc(-c2cccc(C#N)c2)o1`, the inhibition in test [1] came out at 38%. As for `COC(=O)c1ccc(-c2ccc(CN(C)CCN)o2)cc1`, the inhibition in test [1] amounted to 30%. With `CNCCN(C)Cc1ccc(-c2cccc(C(F)(F)F)c2)o1`, the concentration for half-maximal inhibition (IC50) was found to be 14 µM in test [2], 34.5 µM with HepG2, 61.1 µM in the test with MCF7 and 69.8 µM in the test on Daoy. Besides, the inhibition in test [1] amounted to 43%. Regarding `CNCCN(C)Cc1ccc(-c2ccc(OC)cc2)o1`, in test [1], the inhibition amounted to 38%.

Consider `CN(CCN)Cc1ccc(-c2cccc(C(F)(F)F)c2)o1`, for which the inhibition in test [1] was found to be 31%. The same measure, in the same setting: in the case of `CNCCN(C)Cc1ccc(-c2ccc(C#N)cc2)o1` it was 35%.

Take `CNCCN(C)Cc1ccc(-c2ccc(C(=O)OC)cc2)o1`: the inhibition in test [1] was found to be 32%. As for `CN(CCN)Cc1ccc(-c2ccc(OC(F)(F)F)cc2)o1`, the inhibition in test [1] worked out at 25%. For the compound `CNCCN(C)Cc1ccc(-c2ccc(OC(F)(F)F)cc2)o1`, the half-maximal inhibitory concentration (IC50) worked out at 17 µM in test [2], 24.2 µM with HepG2, 30.6 µM in the test on MCF7 and 24.3 µM in the test on Daoy. The inhibition in test [1] came out at 40%. `O=C(Nc1ccc2c(O)cc(S(=O)(=O)O)cc2c1)Nc1ccc2c(O)cc(S(=O)(=O)O)cc2c1`: the concentration for half-maximal inhibition (IC50) in the test with HepG2 was 51.2 µM; in the test on MCF7 it was above 100 µM; with Daoy, above 100 µM. As to `CNCCN(C)c1nnnn1Cc1ccccc1C(F)(F)F`, in test [1], the inhibition came to 13%. For `CN(CCN)Cc1ccc(-c2cccc(OC(F)(F)F)c2)o1`, the 50% inhibitory concentration (IC50) in test [2] is 14 µM; with HepG2, above 100 µM; in the test with MCF7 it was above 100 µM; with Daoy, above 100 µM. Also, the inhibition in test [1] came to 46%. Consider `CNCCN(C)c1nnnn1Cc1ccc(OC(F)(F)F)cc1`, for which the inhibition in test [1] is 5%. Turning to `COc1ccc(-c2ccc(CN(C)CCN)o2)cc1`, in test [1], the inhibition is 25%. Still for that read-out and setting: under `CNCCN(C)Cc1ccc(-c2cccc(C#N)c2)o1` stands 33%. On the same count and under the same terms, in the case of `COc1cccc(-c2ccc(CN(C)CCN)o2)c1` it was 24%. As for `CNCCN(C)c1nnnn1Cc1ccc(C(F)(F)F)cc1`, the inhibition in test [1] turned out to be 2%.

As for `CNCCN(C)Cc1ccc(-c2ccc(C(F)(F)F)cc2)o1`, the half-inhibitory concentration (IC50) in test [2] was determined as 8.2 µM; in the test with HepG2, 36.4 µM; with MCF7 it was 49.8 µM; in the test on Daoy it was 72.8 µM. Besides, the Ratio IC50 in test [3] is 3. In addition, in test [1], the inhibition was 43%.

In the case of `CNCCN(C)Cc1ccc(-c2cccc(OC)c2)o1`, in test [1], the inhibition came out at 37%. The same measure, in the same setting: under `FC(F)(F)c1cccc(Cn2nnnc2N2CCNCC2)c1` stands 1%. Take `CNCCN(C)Cc1ccc(-c2cccc(OC(F)(F)F)c2)o1`: the IC50 in test [2] worked out at 14 µM; in the test on HepG2, 23 µM; in the test with MCF7, 64.4 µM; in the test with Daoy, 23.6 µM. Besides, the inhibition in test [1] came to 41%.

As for `CNCCN(C)c1nnnn1Cc1ccc(C#N)cc1`, the inhibition in test [1] was found to be 6%.

Turning to `CNCCN(C)Cc1ccc(-c2cccc(C(=O)OC)c2)o1`, the IC50 in test [2] is 14 µM; with HepG2, 74.1 µM; with MCF7 it was above 100 µM; in the test on Daoy, 71.2 µM. In addition, the inhibition in test [1] turned out to be 51%.

On to `Nc1ncnc2c1ncn2[C@@H]1O[C@H](CSCC[C@H](N)C(=O)O)[C@@H](O)[C@H]1O`, for which the inhibition in test [1] is 90%.

Take `CNCCN(C)c1nnnn1Cc1ccccc1OC(F)(F)F`: the inhibition in test [1] amounted to 9%. The same measure, in the same setting: in the case of `COC(=O)c1cccc(-c2ccc(CN(C)CCN)o2)c1` it was 38%; in that of `CNCCN(C)c1nnnn1Cc1cccc(OC(F)(F)F)c1`, 12%. Consider `CNCCN(C)c1nnnn1Cc1ccc(OC)cc1`, for which, in test [1], the inhibition is 0%. Consider `CN(CCN)Cc1ccc(-c2ccc(C(F)(F)F)cc2)o1`, for which the inhibition in test [1] stood at 37%.

Values taken from ChEMBL document CHEMBL4043236, “Design and synthesis of novel PRMT1 inhibitors and investigation of their binding preferences using molecular modelling” (Bioorg Med Chem Lett, 2017).
